How the values were obtained:
[1] = tested on: IDO1 gene expression in THP-1 cells; assay: Induction of IDO1 in THP-1 cells (RT-qPCR); type: cell-based, human; conditions: 96 hours; for concentration at which the highest level of IDO induction was observed: tested 0.1-10 micromolar; for increase of IDO1 gene expression (maximum over tested concentrations): compound alone
Description: THP-1 cells were harvested from appropriate number of T75 flasks. Cells were counted in a Bürker chamber, stained with 0.4% Trypan Blue. The appropriate number of cells for each experiment were transferred to a new tube and centrifuged at 1200 rpm, 5 min at room temperature (RT). The supernatant was discarded and fresh RPMI with 5% FBS were added to get a cell concentration of 2×10^5 cells/mL. The compound was added to the five separate wells in 6-well plates such that five different final concentrations were obtained after adding the cells. A control was added to one well in the 6-well plate to which cells were added. 1×10^6 cells per well were seeded out to achieve a total volume of 5 mL per well. The cells were incubated at 37° C. in 5% CO2 for 96 hours. After 96 hours the assay was stopped and the cells were lysed for the isolation of RNA.
Total RNA was extracted from THP-1 cells using the RNA RNeasy Mini extraction kit (Qiagen), according to the manufacturer's instructions. A SuperScript® VILO™ RT-kit (Thermo Fisher) was used to reverse transcribe 1 μg of total RNA to cDNA and qPCR was performed. The primers used for amplification of the human IDO1 gene were 5′-[…]-3′ (forward; SEQ ID No. 1) and 5′-[…]-3′ (reverse; SEQ ID No. 2). The primers used for amplification of the endogenous reference gene for human HPRT1 were 5′-[…]-3′ (forward; SEQ ID No. 3) and 5′-[…]-3′ (reverse; SEQ ID No. 4). In brief, RT-qPCR was performed in 20 μl reaction, consisting 10 μl PowerUp SYBR Green Master Mix, 0.5 μM of each primer, 4 μl diluted cDNA for amplification of IDO1 and 1.5 μl diluted cDNA for amplification of HPRT1. An iCycler iQ real-time detection system (Stratagene, Mx3000P, La Jolla, Calif., USA) with the following thermal profile: UDG incubation at 50° C. for 2 min, then denaturation at 95° C. for 5 min, followed by 45 cycles at 94° C. for 15 s, 58° C. for 30 s, and 60° C. for 30 s, was used to perform thermocycling and real-time detection of PCR products. After amplification a melting curve analysis was performed. The RT-qPCR experiments were always run in triplicate. IDO1 was normalised to the geometric means of two HPRT1 reference gene, using the ΔCt method. Within-group comparisons were normalized to one control sample, using the ΔΔCt method.

[2] = tested on: collagen-induced arthritis in DBA/1 mice; assay: Treatment of collagen-induced arthritis in vivo; conditions: 1 mg/kg for 4 days from day of arthritis onset, scored 10 days, vs vehicle (FIG. 3, P<0.05)
Description: DBA/1 mice were immunized with bovine type II collagen emulsified in complete Freund's adjuvant. The mice were treated with decitabine (1 mg/kg) for 4 days, starting on the day of arthritis onset. Treatment was then stopped. Negative controls received vehicle alone. Clinical scores were monitored for 10 days following onset of arthritis. A clinical scoring system was used as follows. Arthritis severity was scored by an experienced non-blinded investigator as follows: 0=normal, 1=slight swelling and/or erythema, 2=pronounced swelling, 3=ankylosis. All four limbs were scored, giving a maximum possible score of 12 per animal.

naïve CD4+ CD25− T cells = assay: Conversion of CD4+CD25− T cells into CD4+FoxP3+ Tregs in vitro; type: cell-based
Description: To assess the effect of decitabine on the generation of Tregs, naïve CD4+ CD25− T cells were cultured with mitomycin C treated APCs plus IL-2, TGFβ and anti-CD3 in the presence or absence of decitabine and numbers of CD4^+FoxP3^+ Tregs were determined by FACS after 72 h. The RNA was isolated from cell lysate, and reverse transcribed to cDNA for RT-qPCR analysis using Taqman primer probes. Expression of genes encoding Foxp3 was normalized to HPRT expression and was calibrated relative to vehicle group.

| Structure (SMILES) | dose dependence of IDO1 gene expression ([1]; 0.1-10 micromolar) | concentration at which the highest level of IDO induction was observed [1] [µM] | increase of IDO1 gene expression (maximum over tested concentrations) ([1]; 0.1-10 micromolar) | IDO1 expression (fold change) ([1]; decitabine 0.1 micromolar, vs DMSO control) | IDO1 expression (fold change) ([1]; decitabine 0.3 micromolar, vs DMSO control) | IDO1 expression (fold change) ([1]; decitabine 1 micromolar, vs DMSO control) | IDO1 expression (fold change) ([1]; decitabine 3 micromolar, vs DMSO control) | IDO1 expression (fold change) ([1]; decitabine 10 micromolar, vs DMSO control) | disease severity (mean clinical score) [2] | relative expression of the Foxp3 gene (RT-qPCR) (naïve CD4+ CD25− T cells; normalized to HPRT, relative to vehicle group, vs control "nil" (FIG. 4C)) | frequencies of CD4+FoxP3+ Tregs (FACS) (naïve CD4+ CD25− T cells; with mitomycin C treated APCs, IL-2, TGFβ, anti-CD3, after 72 h, vs control "nil" (FIG. 4B)) | IDO1 expression (fold change) ([1]; azacytidine 0.1 micromolar, vs H2O:HAc control) | IDO1 expression (fold change) ([1]; azacytidine 0.3 micromolar, vs H2O:HAc control) | IDO1 expression (fold change) ([1]; azacytidine 1 micromolar, vs H2O:HAc control) | IDO1 expression (fold change) ([1]; azacytidine 3 micromolar, vs H2O:HAc control) | IDO1 expression (fold change) ([1]; azacytidine 10 micromolar, vs H2O:HAc control) |
| --- | --- | --- | --- | --- | --- | --- | --- | --- | --- | --- | --- | --- | --- | --- | --- | --- |
| Nc1ncn([C@H]2C[C@H](O)[C@@H](CO)O2)c(=O)n1 [decitabine, 4-Amino-1-(2-deoxy-β-D-ribofuranosyl)-1,3,5-triazin-2(1H)-one] | a dose-related response was observed | 10 | up to 101 fold | 6 | 16.4 | 40 | 87 | 101 | successful in reducing disease severity | increased in a dose-dependent manner | increased in a dose-dependent manner |  |  |  |  |  |
| Nc1ncn([C@@H]2O[C@H](CO)[C@@H](O)[C@H]2O)c(=O)n1 [azacytidine, 4-Amino-1-(β-D-ribofuranosyl)-1,3,5-triazin-2(1H)-one] |  | 1 | up to 23 fold |  |  |  |  |  |  |  |  | 0.5 | 1.2 | 23 | 6 | 8.6 |

Reference: patent publication US20190201431A1, “EX VIVO METHODS OF INDUCING IDO EXPRESSION IN ANTIGEN PRESENTING CELLS USING A COMPOUND SELECTED FROM THE GROUP CONSISTING OF AZACYTIDINE, AND DECITABINE” (IDOGEN AB, priority 2016, published 2019)
